Results from ChEMBL document CHEMBL5052842, “Pharmaceutical compounds and their use as inhibitors of ubiquitin specific protease 19 (usp19)” (2020).
pIC50: −log10 of the molar value.

Each compound was assayed against T1, Ubiquitin carboxyl-terminal hydrolase 19 (Homo sapiens, UniProt O94966) (assay: Inhibition of C-terminal His6-tagged recombinant human USP19 using iso-peptide ubiquitin-Lys-TAMRA as substrate incubated for 30 mins and measured after 90 mins by fluorescent polarization assay).
T1 sequence (O94966 whole entry): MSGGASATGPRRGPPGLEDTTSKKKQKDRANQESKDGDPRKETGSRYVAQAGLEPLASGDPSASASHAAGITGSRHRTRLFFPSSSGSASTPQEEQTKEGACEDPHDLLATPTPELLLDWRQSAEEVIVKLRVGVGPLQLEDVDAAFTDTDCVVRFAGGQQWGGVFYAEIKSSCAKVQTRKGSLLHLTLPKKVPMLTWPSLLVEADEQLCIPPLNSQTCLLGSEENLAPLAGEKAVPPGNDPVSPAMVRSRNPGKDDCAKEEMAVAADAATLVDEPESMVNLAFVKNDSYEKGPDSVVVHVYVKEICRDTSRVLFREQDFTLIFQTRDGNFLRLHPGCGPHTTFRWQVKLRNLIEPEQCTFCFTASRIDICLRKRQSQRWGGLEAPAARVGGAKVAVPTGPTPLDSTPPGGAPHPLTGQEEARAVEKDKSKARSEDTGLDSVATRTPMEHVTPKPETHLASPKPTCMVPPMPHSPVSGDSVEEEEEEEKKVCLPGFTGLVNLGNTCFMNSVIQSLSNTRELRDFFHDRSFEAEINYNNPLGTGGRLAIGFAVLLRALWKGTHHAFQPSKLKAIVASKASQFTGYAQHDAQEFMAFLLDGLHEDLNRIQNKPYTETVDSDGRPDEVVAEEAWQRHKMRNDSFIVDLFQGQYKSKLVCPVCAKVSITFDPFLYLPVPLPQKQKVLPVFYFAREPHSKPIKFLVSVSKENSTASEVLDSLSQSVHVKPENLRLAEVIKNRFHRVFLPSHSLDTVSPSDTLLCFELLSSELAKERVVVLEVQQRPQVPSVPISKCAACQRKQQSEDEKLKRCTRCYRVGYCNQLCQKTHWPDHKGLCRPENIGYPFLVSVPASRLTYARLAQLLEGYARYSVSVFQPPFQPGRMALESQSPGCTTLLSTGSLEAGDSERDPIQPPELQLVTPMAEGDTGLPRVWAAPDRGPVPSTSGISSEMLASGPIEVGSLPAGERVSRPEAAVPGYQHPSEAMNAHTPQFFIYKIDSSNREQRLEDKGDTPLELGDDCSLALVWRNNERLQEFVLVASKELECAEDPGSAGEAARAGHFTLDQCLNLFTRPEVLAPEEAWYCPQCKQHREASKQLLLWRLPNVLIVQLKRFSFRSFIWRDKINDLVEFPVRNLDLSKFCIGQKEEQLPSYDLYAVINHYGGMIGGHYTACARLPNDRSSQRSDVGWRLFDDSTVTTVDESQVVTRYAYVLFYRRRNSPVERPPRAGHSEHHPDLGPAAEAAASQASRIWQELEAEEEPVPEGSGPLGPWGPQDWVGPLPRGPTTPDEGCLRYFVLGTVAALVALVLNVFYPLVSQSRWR

| SMILES | pIC50 |
| --- | --- |
| O=C(N1CC[C@@](O)(Cn2cnc(C3CC3)cc2=O)C2(CCCC2)C1)N1CCOC[C@H]1c1ccccc1 | > 6.30 |
| CSc1cn(CC2(O)CCN(C(=O)N3CCNC[C@H]3c3ccccc3)CC23CCCC3)c(=O)cc1-c1ccccc1 (some centres not stated) | > 6.30 |
| C[C@H](CC1CCCCC1)C(=O)N1CCC(O)(Cn2cnc3c(cnn3-c3ccccc3)c2=O)C2(CCCC2)C1 (some centres not stated) | > 6.30 |
| O=C(NCc1cccc(F)c1F)N1CC[C@@](O)(Cn2cnc(-c3ccccc3)cc2=O)C2(CCCC2)C1 | > 6.30 |
| O=C(N1CC[C@@](O)(Cn2cnc(-c3ccc4c(c3)CCO4)cc2=O)C2(CCCC2)C1)N1CCNC[C@H]1c1ccccc1 | > 6.30 |
| COC(=O)c1cn(CC2(O)CCN(C(=O)[C@H](C)CC3CCCCC3)CC23CCCC3)c(=O)cn1 (some centres not stated) | > 6.30 |
| C[C@H](CC(F)(F)F)C(=O)N1CCC(O)(CN2CCN(c3ccccc3)CC2=O)C2(CCCC2)C1 (some centres not stated) | > 6.30 |
| C[C@H](CC1CCCCC1)C(=O)N1CCC(O)(Cn2cc(C(=O)N(C)C)ncc2=O)C2(CCCC2)C1 (some centres not stated) | > 6.30 |
| O=C(N1CC[C@@](O)(Cn2cnc(N3CCCC3)cc2=O)C2(CCCC2)C1)N1CCOC[C@H]1c1ccccc1 | > 6.30 |
| C[C@H](CC1CCCCC1)C(=O)N1CCC(O)(Cn2cnc3ccc(F)cc3c2=O)C2(CCCC2)C1 (some centres not stated) | > 6.30 |
| N=S1(=O)CCN(C(=O)N2CC[C@@](O)(Cn3cnc(-c4ccccc4)cc3=O)C3(CCCC3)C2)C(c2ccccc2)C1 (some centres not stated) | > 6.30 |
| O=C(N1CC[C@@](O)(Cn2cnc(-c3ccccc3)cc2=O)C2(CCCC2)C1)N1CCSCC1c1ccccc1 (some centres not stated) | > 6.30 |
| O=C(N1CCC(O)(Cn2cnc(-c3ccccc3)cc2=O)C2(CCOCC2)C1)N1CCOC[C@H]1c1ccccc1 (some centres not stated) | > 6.30 |
| CN(C)c1ccc(-c2cc(=O)n(C[C@]3(O)CCN(C(=O)N4CCNC[C@H]4c4ccccc4)CC34CCCC4)cn2)cc1 | > 6.30 |
| C[C@H](CC1CCCCC1)C(=O)N1CCC(O)(Cn2ccc3ccncc3c2=O)C2(CCCC2)C1 (some centres not stated) | > 6.30 |
| CN(C)C(=O)c1cn(C[C@]2(O)CCN(C(=O)N3CCOC[C@H]3c3ccccc3)CC2(C)C)c(=O)cc1-c1ccccc1 | > 6.30 |
| O=C(N1CC[C@@](O)(Cn2cnc(C3CC3)cc2=O)C2(CCCC2)C1)N1CCNC[C@H]1c1cccc(F)c1 | > 6.30 |
| C[C@H](CC1CCCCC1)C(=O)N1CCC(O)(Cn2cc(S(C)(=O)=O)c(-c3ccccc3)cc2=O)C2(CCCC2)C1 (some centres not stated) | > 6.30 |
| O=C(N1CC[C@@](O)(Cn2cnc(-c3ccccc3)cc2=O)C2(CCCC2)C1)N1CCNCC1c1ccc(C(F)(F)F)cc1 (some centres not stated) | > 6.30 |
| O=C(N1CC[C@@](O)(Cn2cnc(-c3ccccc3)cc2=O)C2(CCCC2)C1)N1CCS(=O)(=O)C[C@H]1c1cc(F)ccc1F | > 6.30 |
| C[C@H](CC1CCCCC1)C(=O)N1CCC(O)(Cn2cc(S(C)(=N)=O)c(-c3ccccc3)cc2=O)C2(CCCC2)C1 (some centres not stated) | > 6.30 |
| O=C(NCc1ccccc1)N1CCC(O)(Cn2cnc(-c3ccccc3)cc2=O)C2(CCCC2)C1 (configuration not stated) | > 6.30 |
| Cc1cccc(-c2cc(=O)n(C[C@]3(O)CCN(C(=O)N4CCNC[C@H]4c4ccccc4)CC34CCCC4)cn2)c1 | > 6.30 |
| O=C(N1CC[C@@](O)(Cn2cnc(-c3ccccc3OC(F)F)cc2=O)C2(CCCC2)C1)N1CCNC[C@H]1c1ccccc1 | > 6.30 |
| O=C(NCC1CC(F)(F)C1)N1CC[C@@](O)(Cn2cnc(-c3ccccc3)cc2=O)C2(CCCC2)C1 | > 6.30 |

More lines, now with the values ahead:

| pIC50 | SMILES |
| --- | --- |
| > 6.30 | O=C(N1CC[C@@](O)(Cn2cnc(N3CC4CC4C3)cc2=O)C2(CCCC2)C1)N1CCNC[C@H]1c1ccccc1 (some centres not stated) |
| > 6.30 | O=C(N1CC[C@@](O)(Cn2cnc(-c3ccccc3F)cc2=O)C2(CCCC2)C1)N1CCNC[C@H]1c1cc(F)cc(F)c1 |
| > 6.30 | O=C(N1CC[C@@](O)(Cn2cnc(-c3ccc(F)cc3)cc2=O)C2(CCCC2)C1)N1CCNC[C@H]1c1ccccc1 |
| > 6.30 | O=C(N1CC[C@@](O)(Cn2cnc(-c3ccccc3)cc2=O)C2(CCCC2)C1)N1CCNC[C@H]1c1cccc(F)c1 |
| > 6.30 | CSc1ncc2c(=O)n(CC3(O)CCN(C(=O)[C@H](C)CC4CCCCC4)CC34CCCC4)ccc2n1 (some centres not stated) |
| > 6.30 | O=C(N1CC[C@@](O)(Cn2cnc(-c3ccccc3)cc2=O)C2(CCCC2)C1)N1CCNC[C@H]1c1cccc(F)c1F |
| > 6.30 | O=C(N1CC[C@@](O)(Cn2ccc3ncncc3c2=O)C2(CCCC2)C1)N1CCNC[C@H]1c1ccccc1 |
| > 6.30 | O=C(N1CCC(O)(Cn2cnc3c(cnn3C3CC3)c2=O)C2(CCCC2)C1)N1CCNC[C@H]1c1ccccc1 (some centres not stated) |
| > 6.30 | O=C(N1CC[C@@](O)(Cn2cnc(N3CCCC3)cc2=O)C2(CCCC2)C1)N1CCNC[C@H]1c1ccccc1 |
| > 6.30 | O=C(N1CC[C@@](O)(Cn2cnc(C3CC3)cc2=O)C2(CCCC2)C1)N1CCNC[C@H]1c1ccccc1 |
| > 6.30 | O=C(N1CC[C@@](O)(Cn2cnc(N3CCC(F)(F)C3)cc2=O)C2(CCCC2)C1)N1CCNC[C@H]1c1ccccc1 |
| > 6.30 | O=C(N1CC[C@@](O)(Cn2cnc(-c3ccccc3F)cc2=O)C2(CCCC2)C1)N1CCNC[C@H]1c1ccccc1 |
| > 6.30 | O=C(N1CCC(O)(Cn2cnc3cc(F)c(F)cc3c2=O)C2(CCCC2)C1)N1CCOC[C@H]1c1ccccc1 (some centres not stated) |
| > 6.30 | O=C(N1CCC(O)(Cn2cc(F)c(-c3ccccc3)cc2=O)C2(CCCC2)C1)N1CCNC[C@H]1c1ccccc1 (some centres not stated) |
| > 6.30 | O=C(N1CCC(O)(Cn2cnc(-c3ccccc3)cc2=O)C2(CCCCC2)C1)N1CCNC[C@H]1c1ccccc1 (some centres not stated) |
| > 6.30 | CC(=O)N1CCN(CC2(O)CCN(C(=O)[C@H](C)CC3CCCCC3)CC23CCCC3)C(=O)C1 (some centres not stated) |
| > 6.30 | O=C(N1CC[C@@](O)(Cn2cnc(-c3ccccc3C(F)(F)F)cc2=O)C2(CCCC2)C1)N1CCNC[C@H]1c1ccccc1 |
| > 6.30 | N[C@@H]1CCN(C(=O)N2CC[C@@](O)(Cn3cnc(-c4ccccc4)cc3=O)C3(CCCC3)C2)[C@H](c2ccccc2)C1 |
| > 6.30 | O=C(NCc1ccccc1)N1CCC(O)(Cn2ccc(-c3ccccc3)cc2=O)C2(CCCC2)C1 (configuration not stated) |

| pIC50 | SMILES |
| --- | --- |
| > 6.30 | N=S1(=O)CCN(C(=O)N2CC[C@@](O)(Cn3cnc(-c4ccccc4)cc3=O)C3(CCCC3)C2)[C@H](c2cc(F)ccc2F)C1 (some centres not stated) |
| > 6.30 | O=C(N1CCC(O)(Cn2cnc(-c3ccccc3)cc2=O)C2(CCC2)C1)N1CCNC[C@H]1c1ccccc1 (some centres not stated) |
| > 6.30 | O=C(N1CC[C@@](O)(Cn2cnc(-c3cccs3)cc2=O)C2(CCCC2)C1)N1CCNC[C@H]1c1ccccc1 |
| > 6.30 | C[C@H](CC1CCCCC1)C(=O)N1CCC(O)(Cn2cnc3cc(F)c(Cl)cc3c2=O)C2(CCCC2)C1 (some centres not stated) |
| > 6.30 | O=C(N1CC[C@@](O)(Cn2cnc(-c3ccccc3)cc2=O)C2(CCCC2)C1)N1CCNCC1c1ccsc1 (some centres not stated) |
| > 6.30 | C[C@H](CC(F)(F)F)C(=O)N1CCC(O)(CN2CCN(c3ccccn3)CC2=O)C2(CCCC2)C1 (some centres not stated) |
| > 6.30 | O=C(N1CC[C@@](O)(Cn2ccc(N3CCCC3)cc2=O)C2(CCCC2)C1)N1CCNC[C@H]1c1ccccc1 |
| > 6.30 | O=C(N1CC[C@@](O)(Cn2cnc(-c3ccccc3)cc2=O)C2(CCCC2)C1)N1CCC[C@H]1c1ccccc1 |
| > 6.30 | O=C(N1CC[C@@](O)(Cn2ccc(-c3ccccc3)cc2=O)C2(CCCC2)C1)N1CCNC[C@H]1c1ccccc1 |
| > 6.30 | Cc1cccc(-c2cc(=O)n(C[C@]3(O)CCN(C(=O)N4CCNC[C@H]4c4cc(F)ccc4F)CC34CCCC4)cn2)c1 |
| > 6.30 | COc1c(F)cccc1-c1cc(=O)n(C[C@]2(O)CCN(C(=O)N3CCNC[C@H]3c3ccccc3)CC23CCCC3)cn1 |
| > 6.30 | CSc1ncc2c(=O)n(C[C@]3(O)CCN(C(=O)N4CCNC[C@H]4c4ccccc4)CC34CCCC4)ccc2n1 |
| > 6.30 | O=C(N1CC[C@@](O)(Cn2cnc(-c3ccccc3)cc2=O)C2(CCCC2)C1)N1CCNCC1c1cccs1 (some centres not stated) |
| > 6.30 | O=C(NCc1cccc(F)c1)N1CC[C@@](O)(Cn2cnc(-c3ccccc3)cc2=O)C2(CCCC2)C1 |
| > 6.30 | O=C(NCc1ccccc1F)N1CCC(O)(Cn2cnc(-c3ccccc3)cc2=O)C2(CCCC2)C1 (configuration not stated) |
| > 6.30 | O=C(N1CCC(O)(Cn2cnc3c(cnn3Cc3ccccc3)c2=O)C2(CCCC2)C1)N1CCNC[C@H]1c1ccccc1 (some centres not stated) |
| > 6.30 | O=C(N1CC[C@@](O)(Cn2cnc(-c3ccccc3)cc2=O)C2(CCCC2)C1)N1CCNC[C@H]1c1ccc(F)cc1F |
| > 6.30 | O=C(N1CC[C@@](O)(Cn2cnc(-c3ccccc3)cc2=O)C2(CCCC2)C1)N1CCNC[C@H]1c1ccc(F)cc1 |
